Results from patent publication US20230134747A1, “COMPOSITIONS FOR THE TREATMENT OF AUTISM SPECTRUM DISORDER” (STALICLA SA, priority 2020, published 2023).

Key:
[1] = system: patients with idiopathic ASD; test: Observational clinical pilot study: earlier oral bumetanide treatment of ASD patients; format: in vivo, human; conditions: three patients with idiopathic ASD; oral solution 0.5, 1.0 or 2 mg twice daily for three months
Experimental: The main goal of this pilot study was to validate the clinical benefit of bumetanide in patients showing clinical signs and symptoms characterizing ASD phenotype 3. First, a custom semi-structured online clinical questionnaire (Questionnaire […] 2021) comprising a total of 38 medical examination questions and 73 medical history questions was administered by a clinician during a remote screening visit (over the phone) that took up to 90 min. This remote screening visit included reviewing detailed medical history and clinical signs and symptoms related to ASD phenotype 3 with the patient/caregiver for a clinical validation. […]

[2] = system: human cell lines (A549, ASC, HA1E, HT29, MCF7, PC3, VCAP); test: Differential gene expression (QuantSeq RNA sequencing) after bumetanide treatment of cell lines; format: cell-based; conditions: 10 uM, 6 or 24 hours, across cell lines
Experimental: To characterize the cell line invariant mechanism of action, bumetanide was tested across different human cell lines including several cancer cell lines (such as A549, MCF7, PC3, HT29 and VAP) as well as cells from healthy tissues (such as ASC and HA1E). These cell lines (Table 3) were chosen due to their ease of manipulation and suitability for systematic screening. […] Incubation of cell types was performed inside an incubator with a humified atmosphere of 95% and 5% of CO2, and a constant temperature of 37° C. Cells were treated with bumetanide using a dilution of 10 uM for all replicates at a time duration of 6 or 24 hours. [table] Following drug treatment, RNA extracted from each treated cell line was sequenced with QuantSeq with 4-6 million coverage reads per sample in triplicates.

ASD patients = conditions: clinical setting; heterogeneous responses reported; cited from earlier work

Row | Structure (SMILES) | Clinical response of ASD patients to treatment [1] | DEG ranking after treatment, GNAS ([2]; gene GNAS) | Direction of differential expression, GNAS ([2]; gene GNAS) | DEG ranking after treatment, KCNJ6 ([2]; gene KCNJ6) | DEG ranking after treatment, KCNJ10 ([2]; gene KCNJ10) | DEG ranking after treatment, KCNK3 ([2]; gene KCNK3) | DEG ranking after treatment, KCNQ3 ([2]; gene KCNQ3) | DEG ranking after treatment, KCNV1 ([2]; gene KCNV1) | DEG ranking after treatment, SLC12A5 (KCC2) ([2]; gene SLC12A5 (KCC2)) | DEG ranking after treatment, SNAP25 ([2]; gene SNAP25) | Effect on behaviour in ASD patients (ASD patients)
1 | CCCCNc1cc(C(=O)O)cc(S(N)(=O)=O)c1Oc1ccccc1 [bumetanide, 3-(butylamino)-4-phenoxy-5-sulfamoylbenzoic acid] | shown improvement | 1 | DOWN | 19 | 113 | 49 | 48 | 165 | 35 | 1 | –
2 | C[S+]([O-])CCCCN=C=S (centres unmarked) [sulforaphane] | – | – | – | – | – | – | – | – | – | – | improve behaviour in some ASD patients
